Among the test systems are NCI/ADR-RES ovarian; UO-31 renal; HOP-92 NSCLC; LOX IMVI melanoma; T-47D breast; SK-MEL-28 melanoma; RXF 393 renal; SNB-19 CNS; ACHN renal; MOLT-4 leukemia.
What all share (test): growth of human tumour cells (NCI), 48 h

Several values for one entry are separate records, joined by “and”; a condition that tells them apart may be missing. Equal entries are not always repeated.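 Results reflect a 48-hour exposure of cells in 96-well plates to compound at five concentrations. GI50 is the concentration that inhibits growth by half. TGI: concentration producing complete growth inhibition.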

With `CCCCCCCCCCCCN1C(C)=CS/C1=C\C=C\c1scc(C)[n+]1CCCCCCCCCCCC`, the GI50 was 3.06 µM with NCI/ADR-RES ovarian; 2.4 µM in the test with UO-31 renal; 0.864 µM in the test on HOP-92 NSCLC; 1.79 µM in the test on LOX IMVI melanoma; 0.817 µM in the test on T-47D breast; 2.74 µM with SK-MEL-28 melanoma. In addition, the GI50 is 1.42 µM in the test on RXF 393 renal, 1.91 µM in the test on SNB-19 CNS, 1.84 µM in the test with ACHN renal and 2.55 µM in the test with MOLT-4 leukemia. The TGI in the test with NCI/ADR-RES ovarian came to 34.4 µM; in the test on UO-31 renal it was 12.4 µM; with HOP-92 NSCLC it was 3.77 µM; with LOX IMVI melanoma it was 5.96 µM; in the test on T-47D breast it was 6.77 µM; in the test with SK-MEL-28 melanoma, 17.3 µM. Besides, the TGI with RXF 393 renal was 5.29 µM; in the test on SNB-19 CNS it was 10.3 µM; in the test with ACHN renal, 10.4 µM; in the test on MOLT-4 leukemia, more than 100 µM.
`CN(C)CCCCN1CCc2c(n(C)c3ccccc23)C1=O`: the TGI was more than 100 µM in the test on NCI/ADR-RES ovarian; > 76.3 µM and 46.7 µM with UO-31 renal; 81.2 µM and > 90.7 µM with HOP-92 NSCLC; > 72.9 µM and 42.8 µM in the test with LOX IMVI melanoma; > 51.5 µM and 59.9 µM in the test on T-47D breast; 39.7 µM and 31.4 µM in the test with SK-MEL-28 melanoma. The TGI with RXF 393 renal is 84.7 µM and > 90.5 µM; in the test with SNB-19 CNS it was more than 100 µM; in the test on ACHN renal, more than 100 µM; in the test with MOLT-4 leukemia it was more than 87.6 µM.
With `Nc1c(C(=O)Nc2ccccc2)sc2nc3c(cc12)CCCCCC3`, the GI50 was 0.332 µM in the test with NCI/ADR-RES ovarian; 0.945 µM with UO-31 renal; 0.523 µM in the test with HOP-92 NSCLC; 0.772 µM with LOX IMVI melanoma; 0.892 µM in the test with T-47D breast; 1.1 µM in the test on SK-MEL-28 melanoma. Also, the GI50 with RXF 393 renal was 0.432 µM; in the test on SNB-19 CNS, 0.476 µM; with ACHN renal, 0.887 µM; with MOLT-4 leukemia, 0.422 µM. In addition, the TGI in the test with NCI/ADR-RES ovarian is 3.32 µM; in the test on UO-31 renal, 11.9 µM; in the test on HOP-92 NSCLC, 5.1 µM; in the test with LOX IMVI melanoma, more than 49.4 µM; with T-47D breast, 20.5 µM; in the test on SK-MEL-28 melanoma, 21.8 µM. Also, the TGI is 2.18 µM with RXF 393 renal, 24.9 µM with SNB-19 CNS, 14 µM with ACHN renal and more than 50.9 µM with MOLT-4 leukemia.
`COc1ccc(C(=O)Cn2c(C(=O)c3ccc(OC)cc3)nc3ccccc32)cc1`: the GI50 in the test on NCI/ADR-RES ovarian was 0.671 µM; with UO-31 renal, 6.27 µM; in the test with HOP-92 NSCLC it was more than 100 µM; with LOX IMVI melanoma it was 6.42 µM; in the test on T-47D breast, 3.39 µM; with SK-MEL-28 melanoma it was 3 µM. Further, the GI50 in the test on RXF 393 renal was 2.07 µM; with SNB-19 CNS, 4.37 µM; in the test with ACHN renal, 6.58 µM; in the test with MOLT-4 leukemia it was 0.861 µM. For the same compound, the TGI with NCI/ADR-RES ovarian was 4.06 µM; in the test with UO-31 renal, more than 100 µM; with HOP-92 NSCLC, more than 100 µM; in the test with LOX IMVI melanoma, more than 100 µM; with T-47D breast it was more than 100 µM; in the test on SK-MEL-28 melanoma it was more than 100 µM. Moreover, the TGI in the test on RXF 393 renal is more than 23.2 µM; in the test on SNB-19 CNS, more than 100 µM; in the test with ACHN renal it was more than 100 µM; in the test with MOLT-4 leukemia it was more than 100 µM.
Consider `O=C(Nc1ccc(S(=O)(=O)Nc2nccs2)cc1)c1cccnc1Nc1cccc(Cl)c1`, for which the GI50 in the test with NCI/ADR-RES ovarian is 15.6 µM; in the test on UO-31 renal, 13.8 µM; with HOP-92 NSCLC it was 11.2 µM; in the test on LOX IMVI melanoma, 7.31 µM; with T-47D breast, 8.42 µM; in the test with SK-MEL-28 melanoma it was 17.8 µM. Besides, the GI50 was 14.4 µM in the test with RXF 393 renal, 14.7 µM in the test on SNB-19 CNS, 18.1 µM with ACHN renal and 12.5 µM in the test on MOLT-4 leukemia. Moreover, the TGI with NCI/ADR-RES ovarian was 45.7 µM; in the test on UO-31 renal, 32.3 µM; with HOP-92 NSCLC, 36.5 µM; in the test with LOX IMVI melanoma, 19.9 µM; in the test with T-47D breast it was more than 100 µM; in the test with SK-MEL-28 melanoma it was 37.7 µM. Also, the TGI with RXF 393 renal was found to be 33.4 µM; with SNB-19 CNS it was 34.4 µM; with ACHN renal, 96.6 µM; in the test on MOLT-4 leukemia, 88.9 µM.
Turning to `Oc1ccc2ccccc2c1C=NCCCN=Cc1c(O)ccc2ccccc12`, the GI50 is 14.6 µM in the test with NCI/ADR-RES ovarian; 8.4 µM with UO-31 renal; 8.93 µM in the test on HOP-92 NSCLC; 6.89 µM in the test on LOX IMVI melanoma; 6.66 µM in the test on T-47D breast; 15.8 µM in the test with SK-MEL-28 melanoma. Moreover, the GI50 with RXF 393 renal is 21.8 µM; in the test on SNB-19 CNS, 14.7 µM; in the test with ACHN renal, 5.73 µM; in the test with MOLT-4 leukemia, 10.3 µM. Moreover, the TGI in the test on NCI/ADR-RES ovarian is 49.4 µM; with UO-31 renal, 52.4 µM; with HOP-92 NSCLC it was 59.9 µM; with LOX IMVI melanoma, 19.4 µM; in the test on T-47D breast, 43 µM; with SK-MEL-28 melanoma it was more than 100 µM. Moreover, the TGI in the test on RXF 393 renal was 86.2 µM; with SNB-19 CNS, more than 100 µM; in the test on ACHN renal, 34.9 µM; in the test on MOLT-4 leukemia it was 56.9 µM.
As for `Cc1cc2c(c3c1c1ccccc1n3C)C(=O)C=CC2=O`, the TGI in the test with NCI/ADR-RES ovarian is more than 100 µM; in the test with UO-31 renal, 36.5 µM; with HOP-92 NSCLC it was 31.4 µM; with LOX IMVI melanoma it was 35.6 µM; in the test with T-47D breast, 48.8 µM; in the test with SK-MEL-28 melanoma it was 47.9 µM. For the same compound, the TGI in the test with RXF 393 renal was 30.5 µM; with SNB-19 CNS it was more than 100 µM; with ACHN renal it was more than 64.6 µM; in the test with MOLT-4 leukemia, 12 µM.

The values above are taken from PubChem BioAssay (NCI).
